This note sets out measurements from US20230382915A1, “GCN2 AND PERK KINASE INHIBITORS AND METHODS OF USE THEREOF” (Deciphera Pharmaceuticals, LLC, priority 2021, published 2023).

As usually defined, the inhibition is the relative decrease from the control value, in per cent.

Assay [1] concerns ATF4 levels in CCRF-CEM leukemia xenograft. Kind of assay: CCRF-CEM xenograft PK/PD model. As to conditions: Mus musculus, po, in combination with ASNase, 2, 6, 10 h post dose, read-out: inhibition of ATF4 levels compared to vehicle control. Format: in vivo, mice. The protocol:
The CCRF-CEM xenograft model was performed in compliance with all the laws, regulations and guidelines of the National Institutes of Health (NIH) and with the approval of the Animal Care and Use Committee of Labcorp (Ann Arbor, MI), an AAALAC accredited facility. Food and water was provided ad libitum. […] Female Envigo C.B-17 SCID (6-7 weeks old) were inoculated subcutaneously just below the right high axilla with ten million cells in Dulbecco's Phosphate Buffered Saline, using a 27-gauge needle and syringe. When tumor burdens reached 200 mm 3 on average on day 22, mice were randomly assigned into groups such that the mean tumor burden for all groups was within 10% of the overall mean tumor burden for the study population. Groups were treated on days 23-24 as follows: on day 23 vehicle control (dosed orally and IP to mimic combination groups) (n=9); ASNase (Abcam, Cambridge, UK) dosed IP at 1000 U/kg/day (n=9). […] Protein concentrations were determined using BCA protein assay kit (Thermo Fisher Scientific, Waltham, MA). […] Samples were resolved using SDS-PAGE then analyzed using Western blot to quantify phospho-GCN2 (Thr899) (Abcam, Cambridge, UK), total GCN2, ATF4 and beta-Actin (Cell Signaling Technology, Danvers, MA). […] Data is analyzed using GraphPad Prism software (GraphPad, San Diego, CA) to calculate % inhibition.

The test system of assay [2] is H2030 spheroids. Kind of assay: Spheroid Western blot assay, H2030. Format: cell-based. On the procedure:
NSCLC cell lines H358 (catalog #CRL-5807) and H2030 (catalog #CRL-5914), and fibrosarcoma cell line HT-1080 (catalog […]) were obtained from the American Type Culture Collect (ATTC, Manassas, VA). Cells were grown in RPMI-1640 medium supplemented with 10% heat-inactivated fetal bovine serum and 1% Penicillin/Streptomycin/L-Glutamine (Invitrogen, Carlsbad, CA) at 37° C., 5% CO2, and 95% humidity and maintained at 50-80% confluency until use. Cells were plated at 500,000 cells/well in 24-well Elplasia plates (Corning, Glendale, AZ) with complete growth media at 1 mL/well and incubated overnight at 37° C., 5% CO2, and 95% humidity to form spheroids. The next day, serial dilutions of test compounds were prepared in complete growth media and 500 μL existing media was removed from each well and replaced with fresh media containing compound titers. Spheroids were then incubated with test compounds for 4 hours or 24 hours under the same conditions. […] Western blots were performed to quantify phospho-GCN2 (R&D Systems, Minneapolis, MN), ATF4, CHOP, cleaved PARP, cleaved Caspase 3 and 7, and beta-Actin (Cell Signaling Technology, Danvers, MA). […]
(In western blotting, separated proteins are transferred to a membrane and probed.)

For `Cn1cc(-c2cccc(NS(=O)(=O)c3cc(Cl)cc(CO)c3Cl)c2F)c2c(N)ncnc21` [Example 2, N-(3-(4-amino-7-methyl-7H-pyrrolo[2,3-d]pyrimidin-5-yl)-2-fluorophenyl)-2,5-dichloro-3-(hydroxymethyl)benzenesulfonamide], the inhibition at 25 mg/kg in assay [1] (25 mg/kg orally) fell in the range of 57 to 93%. For the same compound, the inhibition at 50 mg/kg in assay [1] (50 mg/kg orally) was 87 to 91%. For the same compound, in assay [2], the “upregulation of ATF4 (Western blot quantification)” value is listed as “up to 20 fold”.
